Consider nine molecules from US11034672B1, “Tyrosine kinase inhibitor compositions, methods of making and methods of use” (Black Diamond Therapeutics, Inc., priority 2018, dated 2021).

Bounds are passed on as bounds.

What all share (assay type): cell-based
In assay [1] the target is T1, EGFR NPH (Homo sapiens, UniProt P00533, DUP771-773).
T1 construct: expressed in transfected cells; host or cells: BaF3 (murine pro-B), retroviral pMXs-IRES-Blasticidin
The assay can be described thus: Activity for inhibiting EGFR (Table A), EGFR NPH. Particulars: read-out: EGFR NPH, potency code (IC50).

Assay [2] has as its target T2, HER2 WT (Homo sapiens, UniProt P04626). The assay can be described thus: Activity for inhibiting HER2 (Table B), HER2 WT.
The target of assay [3] is T3, HER2 YVMA (Homo sapiens, UniProt P04626, INS775YVMA).
T3 construct: expressed in transfected cells; host or cells: BaF3 (murine pro-B)
Briefly: Activity for inhibiting HER2 (Table B), HER2 YVMA. Particulars: read-out: HER2 YVMA, potency code (IC50). Here is the method:
(§1) EC50 values were determined with the same application.

Assay [4] has as its target T3, HER2 YVMA. Briefly: BaF3 cell proliferation assay, HER2 YVMA (Table B). Particulars: potency code, 3 days, CellTiterGlo, read-out: HER2 YVMA (Activity for Inhibiting HER2). Background: In ATP-based viability assays light output follows the ATP content of the culture.
The target of assay [5] is T4, HER2 S310F (Homo sapiens, UniProt P04626, S310F).
T4 construct: expressed in transfected cells; host or cells: BaF3 (murine pro-B)
Briefly: Activity for inhibiting HER2 (Table B), HER2 S310F. Particulars: read-out: HER2 S310F, potency code (IC50). Here is the method: as §1

Assay [6] concerns the target T5, EGFR WT (Homo sapiens, UniProt P00533). Briefly: BaF3 cell proliferation assay, EGFR WT (Table A). Particulars: potency code, 3 days, CellTiterGlo, read-out: EGFR WT (Activity for Inhibiting EGFR). The essentials: (§2)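 EC50s reflect growth of IL-3-independent BaF3 lines whose proliferation depends on the introduced human receptor variant. Lines were produced by retroviral infection and one week of 10 μg/ml Blasticidin selection.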

The target of assay [7] is T6, EGFR SVD (Homo sapiens, UniProt P00533, DUP768-770).
T6 construct: expressed in transfected cells; host or cells: BaF3 (murine pro-B), retroviral pMXs-IRES-Blasticidin
Briefly: Activity for inhibiting EGFR (Table A), EGFR SVD. Particulars: read-out: EGFR SVD, potency code (IC50).

For assay [8], the target named is T7, EGFR V3 (Homo sapiens, UniProt P00533, DELINS30-297G).
T7 construct: expressed in transfected cells; host or cells: BaF3 (murine pro-B), retroviral pMXs-IRES-Blasticidin
Briefly: Activity for inhibiting EGFR (Table A), EGFR V3 (EGFR-Viii). Particulars: read-out: EGFR V3, potency code (IC50).

Assay [9] concerns the target T5, EGFR WT. Briefly: Activity for inhibiting EGFR (Table A), EGFR WT. Particulars: read-out: EGFR WT, potency code (IC50).
In assay [10] the target is T2, HER2 WT. The assay can be described thus: BaF3 cell proliferation assay, HER2 WT (Table B). Particulars: potency code, 3 days, CellTiterGlo, read-out: HER2 WT (Activity for Inhibiting HER2).
Assay [11] has as its target T7, EGFR V3. Briefly: BaF3 cell proliferation assay, EGFR V3 (Table A). Particulars: potency code, 3 days, CellTiterGlo, read-out: EGFR V3 (Activity for Inhibiting EGFR). In a few lines: as §2
Assay [12] addresses T6, EGFR SVD. The assay can be described thus: BaF3 cell proliferation assay, EGFR SVD (Table A). Particulars: potency code, 3 days, CellTiterGlo, read-out: EGFR SVD (Activity for Inhibiting EGFR). As to the method: (§3) Retroviral Production: EGFR mutants were subcloned into pMXs-IRES-Blasticidin (RTV-016, Cell Biolabs, San Diego, Calif.). Retroviral expression vector retrovirus was produced by transient transfection of HEK 293T cells with the retroviral EGFR mutant expression vector pMXs-IRES-Blasticidin (RTV-016, Cell Biolabs), pCMV-Gag-Pol vector and pCMV-VSV-G-Envelope vector. Briefly, HEK 293T/17 cells were plated in 100 mm collagen coated plate (354450, Corning Life Sciences, Tewksbury, Mass.) (4×10^5 per plate) and incubated overnight. The next day, retroviral plasmids (3 μg of EGFR mutant, 1.0 μg of pCMV-Gag-Pol and 0.5 μg pCMV-VSV-G) were mixed in 500 μl of Optimem (31985, Life Technologies). The mixture was incubated at room temperature for 5 min and then added to Optimem containing transfection reagent Lipofectamine (11668, Invitrogen) and incubated for 20 minutes. Mixture was then added dropwise to HEK 293T cells. The next day the medium was replaced with fresh culture medium and retrovirus was harvested @ 24 and 48 hrs.
(§4) Generation of EGFR mutant stable cell lines: BaF3 cells (1.5E5 cells) were infected with 1 ml of viral supernatant supplemented with 8 μg/ml polybrene by centrifuging for 30 min at 1000 rpm. Cells were placed in a 37° C. incubator overnight. Cells were then spun for 5 minutes to pellet the cells. Supernatant was removed and cells re-infected a fresh 1 ml of viral supernatant supplemented with 8 μg/ml polybrene by centrifuging for 30 min at 1000 rpm. Cells were placed in 37° C. incubator overnight. […] After 48 hours cells were selected for retroviral infection in 10 μg/ml Blasticidin for one week. Blasticidin resistant populations were washed twice in phosphate buffered saline before plating in media lacking IL-3 to select for IL-3 independent growth.
as §1

Assay [13] concerns the target T4, HER2 S310F. The assay can be described thus: BaF3 cell proliferation assay, HER2 S310F (Table B). Particulars: potency code, 3 days, CellTiterGlo, read-out: HER2 S310F (Activity for Inhibiting HER2).
Assay [14] concerns the target T1, EGFR NPH. The assay can be described thus: BaF3 cell proliferation assay, EGFR NPH (Table A). Particulars: potency code, 3 days, CellTiterGlo, read-out: EGFR NPH (Activity for Inhibiting EGFR). Here is the method:
as §3, §4, §1

[15] abbreviates: Table B, read-out: HER2 WT, potency code (IC50).
The mark [16] stands for this setting: text lists of compounds, read-out: IC50 value for inhibiting wild-type HER2.

T5 sequence (P00533 25-1210 N540K): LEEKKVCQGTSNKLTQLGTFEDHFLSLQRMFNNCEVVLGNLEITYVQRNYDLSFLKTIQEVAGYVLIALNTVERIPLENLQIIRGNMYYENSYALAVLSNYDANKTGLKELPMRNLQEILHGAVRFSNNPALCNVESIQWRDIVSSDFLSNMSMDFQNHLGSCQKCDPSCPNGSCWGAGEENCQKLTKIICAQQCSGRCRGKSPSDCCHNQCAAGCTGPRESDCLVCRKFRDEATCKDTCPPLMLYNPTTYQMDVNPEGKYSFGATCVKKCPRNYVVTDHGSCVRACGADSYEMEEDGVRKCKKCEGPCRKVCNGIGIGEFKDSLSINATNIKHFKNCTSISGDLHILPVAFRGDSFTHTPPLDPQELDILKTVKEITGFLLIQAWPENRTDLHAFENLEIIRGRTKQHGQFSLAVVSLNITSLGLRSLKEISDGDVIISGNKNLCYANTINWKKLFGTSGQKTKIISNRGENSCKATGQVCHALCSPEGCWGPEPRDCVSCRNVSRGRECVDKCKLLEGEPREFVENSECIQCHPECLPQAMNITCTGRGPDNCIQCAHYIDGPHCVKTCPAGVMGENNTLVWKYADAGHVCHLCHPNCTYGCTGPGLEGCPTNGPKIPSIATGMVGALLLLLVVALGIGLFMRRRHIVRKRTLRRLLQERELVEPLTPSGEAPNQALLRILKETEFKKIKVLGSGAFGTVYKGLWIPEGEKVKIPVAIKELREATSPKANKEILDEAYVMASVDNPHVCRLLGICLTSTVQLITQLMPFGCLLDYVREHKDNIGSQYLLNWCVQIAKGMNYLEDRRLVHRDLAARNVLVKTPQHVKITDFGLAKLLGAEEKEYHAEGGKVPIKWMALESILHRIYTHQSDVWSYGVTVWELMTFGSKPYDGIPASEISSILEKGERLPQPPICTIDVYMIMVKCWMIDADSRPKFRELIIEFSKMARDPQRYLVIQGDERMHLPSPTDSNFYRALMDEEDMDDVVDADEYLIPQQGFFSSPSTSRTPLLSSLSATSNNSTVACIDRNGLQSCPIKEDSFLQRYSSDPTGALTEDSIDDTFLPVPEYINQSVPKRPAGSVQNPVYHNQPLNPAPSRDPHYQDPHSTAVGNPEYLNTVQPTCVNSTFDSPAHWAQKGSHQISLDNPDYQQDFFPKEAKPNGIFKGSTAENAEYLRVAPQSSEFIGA
T2 sequence (P04626 23-1255): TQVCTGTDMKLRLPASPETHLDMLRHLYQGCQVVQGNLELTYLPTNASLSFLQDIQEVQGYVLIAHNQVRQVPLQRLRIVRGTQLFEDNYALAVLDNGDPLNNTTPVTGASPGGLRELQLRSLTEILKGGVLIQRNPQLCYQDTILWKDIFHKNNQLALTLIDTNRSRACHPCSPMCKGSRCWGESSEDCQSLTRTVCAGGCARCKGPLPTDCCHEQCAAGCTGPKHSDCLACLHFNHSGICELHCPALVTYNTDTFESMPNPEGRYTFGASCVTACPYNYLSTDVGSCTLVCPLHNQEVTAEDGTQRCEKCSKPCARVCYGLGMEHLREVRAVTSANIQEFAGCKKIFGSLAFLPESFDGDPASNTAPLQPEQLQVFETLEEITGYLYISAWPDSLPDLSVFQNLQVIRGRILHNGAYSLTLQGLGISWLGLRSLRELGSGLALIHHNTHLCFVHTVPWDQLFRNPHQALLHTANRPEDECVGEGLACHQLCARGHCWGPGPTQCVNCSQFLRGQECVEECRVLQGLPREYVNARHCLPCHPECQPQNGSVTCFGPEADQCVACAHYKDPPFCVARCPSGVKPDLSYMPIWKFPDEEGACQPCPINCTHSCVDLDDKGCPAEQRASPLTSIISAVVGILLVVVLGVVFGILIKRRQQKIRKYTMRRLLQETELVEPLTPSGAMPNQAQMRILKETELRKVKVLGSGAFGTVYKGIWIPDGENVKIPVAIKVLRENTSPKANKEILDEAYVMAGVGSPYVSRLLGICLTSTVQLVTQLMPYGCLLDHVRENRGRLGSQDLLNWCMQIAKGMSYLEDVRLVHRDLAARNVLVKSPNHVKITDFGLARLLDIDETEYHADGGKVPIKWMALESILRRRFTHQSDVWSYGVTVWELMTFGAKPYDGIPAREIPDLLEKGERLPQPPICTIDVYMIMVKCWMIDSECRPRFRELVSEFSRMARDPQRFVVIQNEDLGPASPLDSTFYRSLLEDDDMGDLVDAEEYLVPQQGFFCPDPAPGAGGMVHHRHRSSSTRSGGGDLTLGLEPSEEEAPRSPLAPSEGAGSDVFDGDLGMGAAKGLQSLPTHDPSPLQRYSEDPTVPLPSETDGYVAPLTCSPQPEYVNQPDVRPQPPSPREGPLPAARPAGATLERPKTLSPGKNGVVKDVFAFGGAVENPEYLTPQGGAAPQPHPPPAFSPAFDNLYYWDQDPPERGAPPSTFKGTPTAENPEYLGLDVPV
T7 sequence (P00533 with tags, fused parts or gaps DELINS30-297G): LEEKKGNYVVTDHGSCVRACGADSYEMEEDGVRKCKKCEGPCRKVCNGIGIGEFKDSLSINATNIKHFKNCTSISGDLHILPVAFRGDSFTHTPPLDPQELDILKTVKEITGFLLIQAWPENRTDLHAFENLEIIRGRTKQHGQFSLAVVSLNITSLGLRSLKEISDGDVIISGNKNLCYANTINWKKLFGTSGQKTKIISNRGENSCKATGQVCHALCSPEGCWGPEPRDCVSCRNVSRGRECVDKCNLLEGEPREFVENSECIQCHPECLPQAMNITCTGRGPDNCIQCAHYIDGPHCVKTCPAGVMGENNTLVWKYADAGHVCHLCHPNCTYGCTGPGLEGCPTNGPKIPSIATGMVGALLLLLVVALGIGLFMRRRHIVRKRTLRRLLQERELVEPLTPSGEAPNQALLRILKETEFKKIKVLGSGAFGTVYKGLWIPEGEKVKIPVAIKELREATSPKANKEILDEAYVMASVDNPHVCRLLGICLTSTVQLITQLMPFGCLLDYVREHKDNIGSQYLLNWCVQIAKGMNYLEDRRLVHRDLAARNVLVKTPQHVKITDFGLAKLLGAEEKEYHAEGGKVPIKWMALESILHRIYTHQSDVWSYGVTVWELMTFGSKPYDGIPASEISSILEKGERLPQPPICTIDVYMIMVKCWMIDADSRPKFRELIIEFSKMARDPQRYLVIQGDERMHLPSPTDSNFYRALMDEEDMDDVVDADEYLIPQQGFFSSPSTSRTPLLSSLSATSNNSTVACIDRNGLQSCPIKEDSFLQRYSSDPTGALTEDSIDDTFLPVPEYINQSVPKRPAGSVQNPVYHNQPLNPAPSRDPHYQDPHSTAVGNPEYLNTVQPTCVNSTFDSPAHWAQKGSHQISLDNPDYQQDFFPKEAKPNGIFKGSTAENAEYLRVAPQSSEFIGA
T6 sequence (P00533 with tags, fused parts or gaps DUP768-770): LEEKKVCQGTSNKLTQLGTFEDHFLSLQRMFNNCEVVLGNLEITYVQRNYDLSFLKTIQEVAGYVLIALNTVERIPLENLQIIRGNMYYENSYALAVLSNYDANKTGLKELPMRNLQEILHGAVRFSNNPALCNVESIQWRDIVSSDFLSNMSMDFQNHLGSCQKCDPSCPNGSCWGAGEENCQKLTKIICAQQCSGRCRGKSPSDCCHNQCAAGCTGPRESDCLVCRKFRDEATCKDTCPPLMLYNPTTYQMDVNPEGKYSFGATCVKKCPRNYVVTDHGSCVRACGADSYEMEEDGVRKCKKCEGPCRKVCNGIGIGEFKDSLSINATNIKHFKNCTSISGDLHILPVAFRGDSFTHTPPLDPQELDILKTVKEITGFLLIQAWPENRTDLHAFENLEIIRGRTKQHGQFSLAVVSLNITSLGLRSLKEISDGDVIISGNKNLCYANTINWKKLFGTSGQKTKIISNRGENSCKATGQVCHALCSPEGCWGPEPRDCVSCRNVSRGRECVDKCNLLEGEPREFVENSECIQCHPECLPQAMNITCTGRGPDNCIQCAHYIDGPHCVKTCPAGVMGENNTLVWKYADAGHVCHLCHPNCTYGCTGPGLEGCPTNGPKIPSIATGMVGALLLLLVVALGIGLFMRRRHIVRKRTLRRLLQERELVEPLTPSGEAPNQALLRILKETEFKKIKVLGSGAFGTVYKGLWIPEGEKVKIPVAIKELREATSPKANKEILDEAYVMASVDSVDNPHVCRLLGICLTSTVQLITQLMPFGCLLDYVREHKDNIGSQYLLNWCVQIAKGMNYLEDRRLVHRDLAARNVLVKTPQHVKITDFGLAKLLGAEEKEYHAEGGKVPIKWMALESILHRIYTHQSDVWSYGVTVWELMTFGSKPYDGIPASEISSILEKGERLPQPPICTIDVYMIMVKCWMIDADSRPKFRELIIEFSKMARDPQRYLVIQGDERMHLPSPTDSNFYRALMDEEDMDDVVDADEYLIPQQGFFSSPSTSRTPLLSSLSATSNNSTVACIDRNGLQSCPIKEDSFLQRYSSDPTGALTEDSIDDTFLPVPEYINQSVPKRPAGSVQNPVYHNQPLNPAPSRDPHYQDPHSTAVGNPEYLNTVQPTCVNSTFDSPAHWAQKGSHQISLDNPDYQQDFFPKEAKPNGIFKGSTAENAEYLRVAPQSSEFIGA

In the case of `C=CC(=O)Nc1cc2c(Nc3ccc(OCc4ccccn4)c(Cl)c3)ncnc2cc1OCCN1CCN(C)CC1` [compound 40], the IC50 was 10 to 20 nM in assay [1]; less than 5 nM in assay [2] (setting [15]); not above 10 nM in assay [2] (setting [16]); 20 to 30 nM in assay [3]; 20 to 30 nM in [4]; 10 to 20 nM in [5]. Besides, the IC50 in assay [6] is 200 to 300 nM; in assay [7], 10 to 20 nM; in assay [8] it was 10 to 20 nM; in assay [9], 200 to 300 nM; in assay [10], less than 5 nM; in [11], 10 to 20 nM. The IC50 in [12], in assay [13] and in assay [14] was 10 to 20 nM in each case.

Take `C=CC(=O)Nc1cc2c(Nc3ccc(OCc4ccccn4)c(Cl)c3)ncnc2cc1OCCN(C)C1CCOC1` (stereo not drawn) [compound 41]: the IC50 in assay [1] was 50 to 100 nM; in assay [2] (setting [15]) it was 5 to 10 nM; in assay [2] (setting [16]), not above 10 nM; in [3], 50 to 100 nM; in [4], 50 to 100 nM; in assay [5] it was 20 to 30 nM. Further, the IC50 fell in the range of 500 to 1000 nM in assay [6]; 30 to 50 nM in assay [7]; 30 to 50 nM in [8]; 500 to 1000 nM in [9]; 5 to 10 nM in assay [10]; 30 to 50 nM in assay [11]. For the same molecule, the IC50 in assay [12] is 30 to 50 nM; in assay [13] it was 20 to 30 nM; in [14], 50 to 100 nM.

Regarding `C=CC(=O)Nc1cc2c(Nc3ccc(OCc4ccccn4)c(Cl)c3)ncnc2cc1N1CCN(C)CC1` [compound 42], the IC50 in assay [1] is more than 1000 nM; in assay [2] (setting [15]), 30 to 50 nM; in [2] (setting [16]) it was not above 50 nM; in assay [3], 500 to 1000 nM; in [4] it was 500 to 1000 nM; in [5], 50 to 100 nM. For the same molecule, the IC50 in assay [6] fell in the range of 500 to 1000 nM; in [7], 500 to 1000 nM; in assay [8], 50 to 100 nM; in assay [9], 500 to 1000 nM; in [10], 30 to 50 nM; in assay [11] it was 50 to 100 nM. Besides, the IC50 in [12] was 500 to 1000 nM; in assay [13], 50 to 100 nM; in assay [14], more than 1000 nM.

As for `C=CC(=O)Nc1cc2c(Nc3ccc(OCc4ccccn4)c(Cl)c3)ncnc2cc1N1CC2CN(C)CC2C1` (stereo not drawn) [compound 47], the IC50 in assay [1] is 500 to 1000 nM; in [2] (setting [15]), 10 to 20 nM; in [2] (setting [16]) it was not above 20 nM; in [3], 500 to 1000 nM; in assay [4] it was 500 to 1000 nM; in [5] it was 30 to 50 nM. For the same molecule, the IC50 lay in the range of 300 to 500 nM in assay [6]; 500 to 1000 nM in [7]; 30 to 50 nM in [8]; 300 to 500 nM in assay [9]; 10 to 20 nM in [10]; 30 to 50 nM in [11]. For the same molecule, the IC50 in assay [12] was 500 to 1000 nM; in assay [13], 30 to 50 nM; in [14] it was 500 to 1000 nM.

For `C=CC(=O)Nc1cc2c(Nc3ccc(OCc4ccccn4)c(Cl)c3)ncnc2cc1OCCN1CC2COCC2C1` (stereo not drawn) [compound 51], the IC50 in assay [1] is 50 to 100 nM; in [2] (setting [15]) it was 5 to 10 nM; in assay [2] (setting [16]), not above 10 nM; in assay [3] it was 50 to 100 nM; in assay [4], 50 to 100 nM; in assay [5], 10 to 20 nM. For the same molecule, the IC50 was 500 to 1000 nM in [6]; 30 to 50 nM in [7]; 20 to 30 nM in assay [8]; 500 to 1000 nM in [9]; 5 to 10 nM in [10]; 20 to 30 nM in assay [11]. Moreover, the IC50 was 30 to 50 nM in [12], 10 to 20 nM in [13] and 50 to 100 nM in [14].

Regarding `C=CC(=O)Nc1cc2c(Nc3ccc(OCc4ccccn4)c(Cl)c3)ncnc2cc1OCCN1CC2(CCO2)C1` [compound 52], the IC50 in assay [1] was 50 to 100 nM; in assay [2] (setting [15]), 5 to 10 nM; in assay [2] (setting [16]), not above 10 nM; in assay [3] it was 100 to 200 nM; in [4], 100 to 200 nM; in assay [5] it was 20 to 30 nM. In addition, the IC50 in [6] fell in the range of 500 to 1000 nM; in assay [7], 50 to 100 nM; in [8] it was 20 to 30 nM; in assay [9], 500 to 1000 nM; in assay [10], 5 to 10 nM; in [11], 20 to 30 nM. The results for the IC50 in [12], in [13] and in [14] were 50 to 100 nM, 20 to 30 nM and 50 to 100 nM, respectively.

For the molecule `C=CC(=O)Nc1cc2c(Nc3ccc(OCc4ccccn4)c(Cl)c3)ncnc2cc1OCC1(N(C)C)CC1` [compound 54], the IC50 in assay [1] was 100 to 200 nM; in assay [2] (setting [15]) it was 5 to 10 nM; in assay [2] (setting [16]) it was not above 10 nM; in assay [3] it was 100 to 200 nM; in assay [4], 100 to 200 nM; in assay [5], 20 to 30 nM. In addition, the IC50 in assay [6] was more than 1000 nM; in assay [7], 50 to 100 nM; in assay [8], 10 to 20 nM; in [9], more than 1000 nM; in [10] it was 5 to 10 nM; in assay [11], 10 to 20 nM. Besides, the IC50 was 50 to 100 nM in assay [12], 20 to 30 nM in assay [13] and 100 to 200 nM in [14].

On to `C=CC(=O)Nc1cc2c(Nc3ccc(OCc4ccccn4)cc3F)ncnc2cc1OCCN1CCOCC1` [compound 56], for which the IC50 in assay [1] was 300 to 500 nM; in [2] (setting [15]), 20 to 30 nM; in assay [2] (setting [16]), not above 50 nM; in assay [3], 200 to 300 nM; in [4], 200 to 300 nM; in assay [5], 50 to 100 nM. The IC50 lay within 300 to 500 nM in [6]; 300 to 500 nM in assay [7]; 20 to 30 nM in [8]; 300 to 500 nM in assay [9]; 20 to 30 nM in [10]; 20 to 30 nM in [11]. For the same molecule, the IC50 in [12] is 300 to 500 nM; in [13], 50 to 100 nM; in [14], 300 to 500 nM.

Take `C=CC(=O)Nc1cc2c(Nc3cc(Cl)c(OCc4ccccn4)cc3F)ncnc2cc1OCCN1CCOCC1` [compound 57]: the IC50 is 50 to 100 nM in [1]; 5 to 10 nM in assay [2] (setting [15]); not above 10 nM in assay [2] (setting [16]); 50 to 100 nM in assay [3]; 50 to 100 nM in [4]; 10 to 20 nM in [5]. In addition, the IC50 lay within 500 to 1000 nM in assay [6]; 30 to 50 nM in [7]; 10 to 20 nM in assay [8]; 500 to 1000 nM in assay [9]; 5 to 10 nM in [10]; 10 to 20 nM in assay [11]. For the same molecule, the IC50 in assay [12] lay within 30 to 50 nM; in [13], 10 to 20 nM; in [14], 50 to 100 nM.
